# Data published in paper PMC6385875 (Inorganica chimica acta, 2018).
# Test: In vitro integrity of tracers in buffer at physiological pH by HPLC
# Type: physicochemical
# Settings: incubated at physiological pH for up to 6 h
substance,measurement,value
^99mTc(CO)3(PMIDA) [^99mTc-1],in vitro stability (decomposition by HPLC),No measurable decomposition
